Laboratory results as given in PubChem BioAssay (NCI).
Several values for one entry are separate records, joined by “and”; a condition that tells them apart may be missing. Equal values may be shown once.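 Exposure lasted 48 hours, with cells grown in 96-well plates and compounds tested at five concentrations. The concentration for 50% growth inhibition is given as GI50. TGI: concentration producing complete growth inhibition.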

Experiments:
Experiment in all cases: NCI-60 cell line screen, 48 h
NCI-H460 lung = test system: NCI-H460 lung
LOX IMVI melanoma = test system: LOX IMVI melanoma
ACHN renal = test system: ACHN renal
MCF7 breast = test system: MCF7 breast
SN12C renal = test system: SN12C renal
TK-10 renal = test system: TK-10 renal
HL-60(TB) leukemia = test system: HL-60(TB) leukemia
MDA-MB-231 breast = test system: MDA-MB-231 breast
HOP-92 NSCLC = test system: HOP-92 NSCLC
SR leukemia = test system: SR leukemia

SMILES	TGI (NCI-H460 lung) [µM]	TGI (LOX IMVI melanoma) [µM]	TGI (ACHN renal) [µM]	TGI (MCF7 breast) [µM]	TGI (SN12C renal) [µM]	TGI (TK-10 renal) [µM]	TGI (HL-60(TB) leukemia)	TGI (MDA-MB-231 breast) [µM]	TGI (HOP-92 NSCLC) [µM]	GI50 (SR leukemia) [µM]	TGI (SR leukemia)	GI50 (NCI-H460 lung)	GI50 (LOX IMVI melanoma) [µM]	GI50 (ACHN renal)	GI50 (MCF7 breast) [µM]	GI50 (SN12C renal)	GI50 (TK-10 renal) [µM]	GI50 (HL-60(TB) leukemia) [µM]	GI50 (MDA-MB-231 breast)	GI50 (HOP-92 NSCLC) [µM]
CCOC(=O)Oc1cc2c(c(OC)c1OC)-c1ccc(OC)c(=O)cc1C(NC(C)=O)CC2 (stereo unspecified)	6.67	> 100	> 100	> 100	> 100	> 100	0.0298 µM	> 90.2	28.7	–	–	–	–	–	–	–	–	–	–	–
COc1ccc2c(c1)[nH]c(=O)c1c3cccc(F)c3cn21	11.7	> 100	> 100	> 94.6	24.4	> 100	0.0515 µM	> 100	–	0.0247	0.594 µM	0.0442 µM	0.0759	0.0576 µM	0.22	0.0828 µM	9.55	0.0183	0.283 µM	–
C[C@]12CC[C@H]3[C@@H](CC=C4C[C@@H](N5CCCC5)CC[C@@]43C)[C@@H]1C/C(=C\c1cccc(OCCN3CCOCC3)c1)[C@@H]2O	> 100	7.43	32.5	98.1	> 100	46.7	> 100 µM	5.37	–	3.03	> 100 µM	3.28 µM	2.61	4.29 µM	19.7	25.9 µM	4.15	4.32	2.24 µM	–
O=C(CC1OC(O)C(Cl)=C1Cl)c1cccnc1 (stereo unspecified)	> 100	> 100	> 31.6	–	> 100	> 100	> 100 µM	–	> 100	–	> 100 µM	–	–	–	–	–	–	–	–	–
O=C(/C=C/c1ccccc1F)c1ccc(Cl)c(Cl)c1	> 100	23.6	> 100	–	98.5	> 100	51.4 µM	–	> 100	–	> 100 µM	–	–	–	–	–	–	–	–	–
O=C1CC(c2cccc(F)c2)Nc2cc3c(cc21)OCO3 (stereo unspecified)	–	> 100	22.6	> 100	> 100	> 100	–	> 100	> 100	–	–	–	< 0.01	< 0.01 µM	< 0.01	0.207 µM	> 100	–	0.04 µM	30.8
CC(C)(C)C1CCC2c3c([nH]c4ccccc34)C3C(=O)N(c4ccc(Cl)cc4)C(=O)C3C2C1 (stereo unspecified)	> 100	0.0487	> 100	99.6	> 100	> 100	38.8 µM and > 10 µM	> 100	–	–	39.5 µM and > 10 µM	37.2 µM and > 10 µM	–	76.5 µM and > 10 µM	–	37.4 µM and > 10 µM	> 100	–	56.1 µM and > 10 µM	–
NCCCC[C@@H]1NC(=O)[C@H](CC(=O)O)NC(=O)CNC(=O)[C@H](CCCN=C(N)N)NC(=O)[C@@H](N)CSSC[C@@H](C(=O)O)NC(=O)[C@H](CC(=O)O)NC(=O)[C@@H]2CCCN2C(=O)CNC1=O	> 100	> 100	> 100	> 100	> 100	> 100	> 100 µM	–	> 100	> 100	> 100 µM	> 100 µM	> 100	> 100 µM	> 100	> 100 µM	> 100	> 100	–	> 100
CCOC(=O)c1cc2c(cc1Cl)SC(=Nc1ccccc1)N(S(=O)(=O)c1ccc(Cl)cc1)S2(=O)=O	46.7	15	28.8	15.9	33.2	32.3	–	33.7	–	–	–	18.8 µM	3.17	14.5 µM	4.38	15.4 µM	16.8	–	13.2 µM	–
COc1ccc2c(c1)c(-c1nc(-c3c[nH]c4ccncc34)cs1)cn2C	3.31	–	3.17	3.09	3.24	3.39	3.5 µM	2.95	3.33	–	–	1.73 µM	–	1.77 µM	1.47	1.69 µM	1.88	1.68	1.45 µM	1.64
CN(C)c1ccc2oc(=O)c3ccccc3c2c1	> 100	> 100	62.9	–	> 100	> 100	> 100 µM	82.9	> 100	–	> 100 µM	–	–	–	–	–	–	–	–	–
CCOC(=O)C(Cc1c[nH]c2cc([N+](=O)[O-])ccc12)NS(=O)(=O)c1ccc2ccccc2c1 (stereo unspecified)	35.5	31.6	57.9	–	34.4	74.3	48.5 µM	–	51.6	–	68.2 µM	–	–	–	–	–	–	–	–	–
COc1ccc2c(c1)nc(C(=O)c1ccco1)c(C(F)(F)F)[n+]2[O-]	> 100	> 100	> 100	> 100	> 100	> 100	> 100 µM	> 100	–	> 100	> 100 µM	> 100 µM	> 100	> 100 µM	> 100	> 100 µM	86.8	> 100	> 100 µM	–
c1ccc(C2OC3(CCC[C@H]4C[C@H]43)O[C@H]2c2ccccc2)cc1 (stereo partly specified)	> 100	56.8	> 100	–	> 100	> 100	41.1 µM	–	66.2	–	54.2 µM	–	–	–	–	–	–	–	–	–
COC(=O)N[C@H](C(=O)O)C(C)O[Si](C)(C)C(C)(C)C (stereo partly specified)	> 100	> 100	> 100	> 100	> 100	> 100	> 100 µM	> 100	–	–	> 100 µM	–	–	–	–	–	–	–	–	–
COC(=O)c1ccc(CN2C(=O)C(Cl)=C(Nc3cccc(Cl)c3C)C2=O)cc1	> 100	> 100	90.4	> 100	55.4	> 100	–	47.3	> 100	–	–	34.5 µM	32.3	33.7 µM	35.6	18.2 µM	47.8	–	6.15 µM	17
CCc1cccc(C)c1NC(=O)C(=O)CC(=O)c1ccc(Cl)s1	> 100	> 100	> 100	–	> 100	> 100	> 100 µM	–	> 100	–	> 100 µM	–	–	–	–	–	–	–	–	–
O=C(O)c1ccc(C2=Cc3cc(Cl)ccc3OC2)cc1	> 100	> 100	> 100	–	> 100	> 100	> 100 µM	–	> 100	–	> 100 µM	–	–	–	–	–	–	–	–	–
Cc1csc2[n+]1-c1ccccc1N(C(=O)Nc1ccccc1)C(C)C2 (stereo unspecified)	> 100	48.5	> 100	> 100	> 100	> 100	–	45.3	> 100	–	–	81 µM	21.6	55.5 µM	48.7	> 100 µM	> 100	–	18.6 µM	41.7
O=C1CC(c2ccccc2)=Nc2ccccc2N1	> 100	97.6	> 100	–	> 100	> 100	> 100 µM	–	> 100	–	> 100 µM	–	–	–	–	–	–	–	–	–
CC1=C(/C=C/C(C)=C/C2CC(N(C)C)=CC(=O)O2)C(C)(C)CCC1 (stereo unspecified)	42.4	30.3	24.8	–	29.2	27.5	16 µM	–	31.1	–	28.7 µM	–	–	–	–	–	–	–	–	–
CCC(C)Nc1ccc(N)cc1 (stereo unspecified)	13.9	11	13.3	12.4	12.9	25.3	5.05 µM	12.8	–	2.1	5.4 µM	3.85 µM	3.43	3.73 µM	3.41	2.95 µM	5.72	1.48	2.91 µM	–
COc1cc(/C=C/C(=O)/C=C/c2ccc(-n3ccnc3C)cc2)ccc1O	43.4	–	10.4	–	6.63	90.4	32.5 µM	9.03	45.6	2.55	> 100 µM	15.4 µM	–	3.04 µM	–	2.36 µM	4.74	3.26	2.87 µM	10.1
Nc1nc([Se])c2ncn(C3OC(CO)C(O)C3O)c2n1 (stereo unspecified)	57.1	> 100	> 100	> 100	> 100	> 100	> 100 µM	69.8	–	2.88	> 100 µM	4.54 µM	2.85	20.8 µM	4.09	52.9 µM	7.55	4.49	2.81 µM	–
O=C(CSc1nc(-c2ccccc2)c(-c2ccccc2)[nH]1)N/N=C/c1ccc(O)cc1	44.8	43	55.9	–	66.7	72.3	62.3 µM	–	84.9	–	> 100 µM	–	–	–	–	–	–	–	–	–
OC(COC(c1ccccc1)(c1ccccc1)c1ccccc1)C(O)CC1SCCS1 (stereo unspecified)	–	32	38.3	71.9	45.2	39.6	> 100 µM	35.2	–	–	0.953 µM	–	–	–	–	–	–	–	–	–
